{"source": "patent US9545384B2", "about": "“Nanoparticles comprising drug, a non-ionizable cellulosic polymer and tocopheryl polyethylene glocol succinate” (Bend Research, Inc., priority 2007, dated 2017)", "key": {"[1]": {"experiment": "Solubility of drug in water", "type": "physicochemical"}, "[2]": {"experiment": "Log P", "type": "physicochemical", "conditions": "octanol/water", "source_text": "The first property of hydrophobic drugs is that they are extremely hydrophobic. Log P, defined as the base 10 logarithm of the ratio of the drug solubility in octanol to the drug solubility in water, is a widely accepted measure of hydrophobicity. By “extremely hydrophobic” is meant that the Log P value of the drug is at least 4.0, preferably at least 4.5, and most preferably at least 5.0. Log P may be measured experimentally or calculated using methods known in the art. When using a calculated value for Log P, the highest value calculated using any generally accepted method for calculating Log P is used. Calculated Log P values are often referred to by the calculation method, such as C log P, A log P, and M log P. The Log P may also be estimated using fragmentation methods, such as Crippen's fragmentation method (27 J. Chem. Inf. Comput. Sci. 21 (1987)); Viswanadhan's fragmentation method (29 J. Chem. Inf. Comput. Sci. 163 (1989)); or Broto's fragmentation method (19 Eur. J. Med. Chem.-Chim. Theor. 71 (1984). Preferably the Log P value is calculated by using the average value estimated using Crippen's, Viswanadhan's, and Broto's fragmentation methods."}, "[3]": {"experiment": "Solubility of drug in model fasted duodenal (MFD) solution", "type": "physicochemical", "conditions": "fassgf or other biorelevant"}, "[4]": {"conditions": "for Observations: pH 6.5", "method": "The polymer is a poorly aqueous soluble non-ionizable cellulosic polymer. […] An appropriate PBS solution is an aqueous solution comprising 20 mM sodium phosphate (Na2HPO4), 47 mM potassium phosphate (KH2PO4), 87 mM NaCl, and 0.2 mM KCl, adjusted to pH 6.5 with NaOH. A test to determine whether the polymer is insoluble may be performed as follows. The polymer is initially present in bulk powder form with average particle sizes of greater than about 1 micron. The polymer alone is administered at a concentration of 0.2 mg/mL to the PBS solution and stirred for approximately 1 hour at room temperature. Next, a nylon 0.45 μm filter is weighed, and the polymer solution is filtered. The filter is dried overnight at 40° C., and weighed the following morning. The amount of polymer dissolved is calculated from the amount of polymer added to the PBS solution minus the amount of polymer remaining on the filter (mg). […] These polymers were evaluated using the following procedure to determine their aqueous solubility. First, 0.2 mg/mL of the polymer is added to a PBS solution consisting of 20 mM Na2HPO4, 47 mM KH2PO4, 87 mM NaCl, and 0.2 mM KCl, adjusted to pH 6.5 with NaOH. The polymer is stirred in the PBS solution for approximately 1 hour at room temperature. Next, the polymer solution is filtered through a nylon 0.45 μm filter that had been weighed dry prior to filtration. The filter is dried overnight at 40° C., and weighed the following morning. The amount of soluble polymer is calculated from amount of polymer added to form the polymer solution minus the amount of polymer remaining on the filter."}}, "data": [{"molecule": "Cc1onc(-c2ccccc2)c1-c1ccc(S(N)(=O)=O)cc1", "note": "[Drug 1, 4-(5-methyl-3-phenyl-4-isoxazolyl)benzenesulfonamide]", "values": [{"measurement": "solubility", "setting": "[1]", "value": "~10", "unit": "µg/mL"}, {"measurement": "logP", "setting": "[2]", "value": "~3"}]}, {"molecule": "CC[C@@H]1C[C@H](N(Cc2cc(C(F)(F)F)cc(C(F)(F)F)c2)C(C)=O)c2cc(C(F)(F)F)ccc2N1C(=O)OC(C)C", "note": "[Drug 2, [2R,4S]-4-[acetyl-(3,5-bis-trifluoromethyl-benzyl)-amino]-2-ethyl-6-trifluoromethyl-3,4-dihydro-2H-quinoline-1-carboxylic acid isopropyl ester]", "values": [{"measurement": "solubility", "setting": "[3]", "value": "~11", "unit": "µg/mL"}]}, {"molecule": "Cc1ccc(-c2cc(C(F)(F)F)nn2-c2ccc(S(N)(=O)=O)cc2)cc1", "note": "[Drug 3, 4-[5-(4-methylphenyl)-3-(trifluoromethyl)-1H-pyrazol-1-yl]benzenesulfonamide, reference compound]", "values": [{"measurement": "solubility", "setting": "[3]", "value": "~40", "unit": "µg/mL"}]}, {"molecule": "CCOC(=O)N1c2ccc(C(F)(F)F)cc2[C@@H](N(Cc2cc(C(F)(F)F)cc(C(F)(F)F)c2)C(=O)OC)C[C@H]1CC", "note": "[Torcetrapib, [2R,4S]4-[(3,5-bis-trifluoromethyl-benzyl)-methoxycarbonyl-amino]-2-ethyl-6-trifluoromethyl-3,4-dihydro-2H-quinoline-1-carboxylic acid ethyl ester]", "values": [{"measurement": "solubility", "setting": "[1]", "value": "< 0.1", "unit": "µg/mL"}]}, {"molecule": "Cellulose Acetate", "values": [{"measurement": "Soluble at pH 6.5", "setting": "[4]", "value": 0.03, "unit": "mg/mL"}, {"measurement": "Observations", "setting": "[4]", "value": "Fine particle"}]}, {"molecule": "Ethylcellulose", "values": [{"measurement": "Soluble at pH 6.5", "setting": "[4]", "value": "<0.001", "unit": "mg/mL"}, {"measurement": "Observations", "setting": "[4]", "value": "Fine particle"}]}]}
